Measured values from patent US7416728B2, “Growth blocking agents” (Kyto Biopharma, Inc., priority 1992, dated 2008).

Columns and labels:
Acute leukemia = conditions: drug combined with vitamin B12 depletion (nitrous oxide); acute leukemia/rats; cited from earlier work
Myelocytic leukemia = conditions: drug combined with vitamin B12 depletion (nitrous oxide); myelocytic leukemia/rats; cited from earlier work
[1] = system: Raji Burkitt lymphoma cells; assay: Subcutaneous Raji Burkitt lymphoma in nu/nu mice, tumor size; assay type: in vivo
Procedure: Nu/nu mice are injected subcutaneously with 1 million Raji Burkitt lymphoma cells. After two weeks, barely palpable nodules are present at the injection site. Measurements are made in three dimensions with a planarimeter and equally sized tumors assigned to experimental groups of 10 mice. […] Therapy is administered once weekly. Controls of antibody and drug alone, as well as vehicle controls, are included. Mice are monitored visually for toxicity, death, and tumor size weekly for 8 weeks, at which time the experiment is terminated, the mice sacrificed, and the tumors removed and weighed.

[2] = system: Raji Burkitt lymphoma cells; assay: Cell viability by reduction of tetrazolium dye, three days, with and without methotrexate; assay type: cell-based, human; conditions: 100% lysis control = .047
Procedure: Antibody D2/20 at a range of concentrations is incubated with Raji Burkitt lymphoma cells in microtiter plates for three days with and without chemotherapeutic drugs. Cell viability is measured by reduction of tetrazolium dye. Only viable cells metabolize the dye to an insoluble, colored product which is subsequently solubilized and read in a spectrophotometer.

What does the source list for O=c1[nH]cc(F)c(=O)[nH]1 [Clone 5-FU, 5-fluorouracil]?
Therapeutic Results (Acute leukemia): additive; Therapeutic Results (Myelocytic leukemia): additive

With CN(Cc1cnc2nc(N)nc(N)c2n1)c1ccc(C(=O)N[C@@H](CCC(=O)O)C(=O)O)cc1 [Methotrexate, methotrexate] as the compound, how does the “average of serial tumor measurements converted to weight” value (“average” for short) ([1]; week 1, methotrexate 5 Milligrams/M^2 i.v. once weekly) read?
Its value is “.07 grams”.

What about the “average” value ([1]; week 1, methotrexate 10 Milligrams/M^2 i.v. once weekly) of the same compound?
The value was “.05 grams”.

What about the “average” value ([1]; week 1, methotrexate 50 Milligrams/M^2 i.v. once weekly) of the same compound?
The value was “.04 grams”.

And the “average” value ([1]; week 2, methotrexate 5 Milligrams/M^2 i.v. once weekly)?
Its value is “.14 grams”.

And the “average” value ([1]; week 2, methotrexate 10 Milligrams/M^2 i.v. once weekly)?
The value was “.12 grams”.

What about the “average” value ([1]; week 2, methotrexate 50 Milligrams/M^2 i.v. once weekly) of the same compound?
The value was “.10 grams”.

What about the “average” value ([1]; week 3, methotrexate 5 Milligrams/M^2 i.v. once weekly) of the same compound?
Its value is “.43 grams”.

What about the “average” value ([1]; week 3, methotrexate 10 Milligrams/M^2 i.v. once weekly) of the same compound?
Its value is “.30 grams”.

What about the “average” value ([1]; week 3, methotrexate 50 Milligrams/M^2 i.v. once weekly) of the same compound?
The value was “.25 grams”.

And the “average” value ([1]; week 4, methotrexate 5 Milligrams/M^2 i.v. once weekly)?
Its value is “.70 grams”.

What about the “average” value ([1]; week 4, methotrexate 10 Milligrams/M^2 i.v. once weekly) of the same compound?
The value was “.53 grams”.

What about the “average” value ([1]; week 4, methotrexate 50 Milligrams/M^2 i.v. once weekly) of the same compound?
The value was “.41 grams”.

What about the “average” value ([1]; week 5, methotrexate 5 Milligrams/M^2 i.v. once weekly) of the same compound?
Its value is 1.2 grams.

And the “average” value ([1]; week 5, methotrexate 10 Milligrams/M^2 i.v. once weekly)?
Its value is “.92 grams”.

And the “average” value ([1]; week 5, methotrexate 50 Milligrams/M^2 i.v. once weekly)?
Its value is “.73 grams”.

And the “average” value ([1]; week 6, methotrexate 5 Milligrams/M^2 i.v. once weekly)?
Its value is 2.6 grams.

And the “average” value ([1]; week 6, methotrexate 10 Milligrams/M^2 i.v. once weekly)?
The value was 2.1 grams.

And the “average” value ([1]; week 6, methotrexate 50 Milligrams/M^2 i.v. once weekly)?
The value was 1.4 grams.

What about the “average” value ([1]; week 7, methotrexate 5 Milligrams/M^2 i.v. once weekly) of the same compound?
Its value is 4.8 grams.

And the “average” value ([1]; week 7, methotrexate 10 Milligrams/M^2 i.v. once weekly)?
Its value is 4.8 grams.

And the “average” value ([1]; week 7, methotrexate 50 Milligrams/M^2 i.v. once weekly)?
Its value is 2.3 grams.

And the “average” value ([1]; week 8, methotrexate 5 Milligrams/M^2 i.v. once weekly)?
The value was 7.2 grams.

What about the “average” value ([1]; week 8, methotrexate 10 Milligrams/M^2 i.v. once weekly) of the same compound?
Its value is 6.9 grams.

And the “average” value ([1]; week 8, methotrexate 50 Milligrams/M^2 i.v. once weekly)?
Its value is 3.4 grams.

And the “Therapeutic Results” value (Acute leukemia)?
Its value is “synergistic”.

And the “cell viability, tetrazolium dye reading” value ([2]; antibody 0, methotrexate 0.1 micrograms/ml)?
The value was “.993”.

What about the “cell viability, tetrazolium dye reading” value ([2]; antibody 0, methotrexate 1 micrograms/ml) of the same compound?
Its value is “.798”.

What about the “Therapeutic Results” value (Myelocytic leukemia) of the same compound?
The value was “synergistic”.

With NC1(C(=O)O)CCCC1 [cycloleucine] as the compound, how does the “Therapeutic Results” value (Acute leukemia) read?
The value was “synergistic”.

And the “Therapeutic Results” value (Myelocytic leukemia)?
Its value is “additive”.
